Read-outs that look alike come from different tables or passages of the source.
Key:
[1] = system: HeLa cells; test: MTT cytotoxicity assay, HeLa; assay type: cell-based; conditions: Homo sapiens, 48 h, read-out: Cytotoxicity IC50 HeLa
Description: Antiproliferative assays were performed as described. […] Then, increasing concentrations of drugs were added and incubated for 48 h prior to the reaction with the MTT solution. IC50 values were obtained by fitting the experimental data (absorbance at 570/690 nm) to a four-parameter logistic curve using SigmaPlot 14.5 software package (Systat Software, Inc., San Jose, CA, USA) and IC50 values were expressed as mean ± SEM from three independent experiments, each performed in duplicate.

[2] = system: human Kif5B 1–905-EGFP on stabilized MTs; test: Single-molecule kinesin-1 motility assay on stabilized MTs (TIRF); assay type: biochemical
Description: To gain mechanistic insight into the kinesin phenotype observed in cells, we reduced system complexity using an in vitro reconstitution assay. Specifically, we performed time-lapse imaging using total internal reflection fluorescence (TIRF) microscopy with immobilized and stabilized MTs in a flow chamber, into which we introduced 1.08 nM kinesin-1 motors (constitutively active human Kif5B 1–905-EGFP). We then analyzed individual kinesin movements to quantify landing rates (number of motors per unit MT length per unit time), run lengths, interaction times, and average velocities (Figure D, Movies S12–S15). In contrast to our experiments in cells, here we evaluated each structural modification individually to dissect the effects of MT lattice parameters on kinesin-1 mediated transport.
Total Internal Reflection Fluorescence microscopy experiments were performed on an inverted widefield microscope Nikon-Ti2 E, equipped with a motorized XY-stage, a perfect focus system, Apo TIRF 60× oil NA 1.49 objective and PRIME BSY (Teledyne Photometrics) camera. MTs were visualized using Interference Reflection microscopy (IRM) and fluorescently labeled proteins were visualized sequentially by switching between microscope filter cubes for GFP and mCherry channels. The microscopes were controlled using NIS Elements software (Nikon). All experiments were conducted at RT.
Microscopy chambers were prepared from two sandwiched silanized glass coverslips (22 × 22 mm^2 and 18 × 18 mm^2) attached through parafilm strips (heated for 15–20 s at 60 °C and gently pressed together) to form ∼2.5 mm wide parallel flow channels. Prior to the chamber assembly, the coverslips were washed in 3 M KOH, cleaned using Zepto plasma cleaner (Diener electronic) and silanized with hexamethyldisilazane. Flow channels were first incubated with 40 μgml^–1 antibiotin antibodies (Sigma, B3640) in PBS for 10 min, followed by incubation with 1% Pluronic F127 (Sigma-Aldrich, P2443) in PBS for at least 1 h. F127 was washed with BRB80 (80 mM PIPES, 1 mM EGTA, 1 mM MgCl2, pH 6.9).
Porcine brain tubulin was isolated using the high-molarity PIPES procedure then mixed with Biotin labeled tubulin (Cytoskeleton Inc., T333P) in 1:49 ratio. All MTs were polymerized using 2% biotin-labeled tubulin. […] Polymerized MTs were centrifuged for 30 min at 18,000g in a Microfuge 18 Centrifuge (Beckman Coulter’s). […] Drug stabilized preassembly MTs (polymerized in the presence of drugs and GTP, stored and imaged in presence of drug) were polymerized from 4 mg mL^–1 biotinylated tubulin for 30 min at 37 °C in BRB80 supplemented with 4 mM MgCl2, 40 μM drug of interest in 5% DMSO, and 1 mM GTP. Polymerized MTs were centrifuged for 30 min at 18,000g in a Microfuge 18 Centrifuge (Beckman Coulter’s). […] GMPCPP stabilized MTs (GMPCPP polymerized) were assembled from 4 mg mL^–1 biotinylated tubulin for 2 h at 37 °C in BRB80 supplemented with 1 mM MgCl2 and 1 mM GMPCPP (Jena Bioscience, NU-405). Polymerized MTs were centrifuged for 30 min at 18,000g in a Microfuge 18 Centrifuge (Beckman Coulter’s) and pellets were resuspended and kept in BRB80.
Stabilized MTs were flushed into the channel and incubated for 15–30 s to allow for surface attachment. Unbound MTs were removed by washing with BRB80 supplemented with 10 μM of drug. Prior the experiment, the solution was exchanged by motility buffer, MB (BRB80 containing 10 mM DTT, 20 mM D-glucose, 0.1% Tween-20, 0.5 mg/mL casein, 1 mM Mg-ATP, 0.02 mg/mL catalase, 0.22 mg/mL glucose oxidase, 10 μM drug). Subsequently, a solution containing either 1.08 nM Kif5b-EGFP or 10/40 nM mCherry-Tau in MB was introduced into the chamber.
To assess kinesin-EGFP motility along MTs, an IRM image (50 ms exposure) was acquired followed by a 1 min video using 488 nm laser excitation (20% laser intensity, 300 ms exposure) with no delay. Two to three videos were recorded from different fields within the same channel and at least 2 channels were measure for each experimental condition. […]

Compound: CC(=O)OC1C(=O)C2(C)C(OC(=O)CCCCC(=O)OC3CCc4ccccc43)CC3OCC3(OC(C)=O)C2C(OC(=O)c2ccccc2)C2(O)CC(OC(=O)C(O)C(NC(=O)c3ccccc3)c3ccccc3)C(C)=C1C2(C)C (stereo not drawn) [1a, 7-O-(6″-O-(2‴,3‴-Dihydroinden-1‴-yl)hexanedioyl) Paclitaxel]
- IC50 [1]: 180 ± 20 nM
- kinesin-1 landing rate on stabilized MTs ([2]; 1.08 nM Kif5b-EGFP, 10 μM drug): increased on 1a compared with 1b
- kinesin-1 time bound on stabilized MTs ([2]; 1.08 nM Kif5b-EGFP, 10 μM drug): increased the time bound
- kinesin-1 velocity on stabilized MTs ([2]; 1.08 nM Kif5b-EGFP, 10 μM drug): decreased the velocity

Compound: COc1ccc2c(c1)CC(NC(=O)CCCCCCCC(=O)OC1CC3OCC3(OC(C)=O)C3C(OC(=O)c4ccccc4)C4(O)CC(OC(=O)C(O)C(NC(=O)c5ccccc5)c5ccccc5)C(C)=C(C(OC(C)=O)C(=O)C13C)C4(C)C)CC2 [1b, 7-O-((S)-9″-(7‴-Methoxy-1‴,2‴,3‴,4‴-tetrahydronaphthalen-2‴-yl)amino) −9″-oxononanoyl) Paclitaxel]
- IC50 ([1]; MTT, mean ± SEM): 100 ± 20 nM

Compound: CC(=O)O[C@H]1C(=O)[C@@]2(C)[C@H]([C@H](OC(=O)c3ccccc3)[C@]3(O)C[C@H](OC(=O)[C@H](O)[C@@H](NC(=O)c4ccccc4)c4ccccc4)C(C)=C1C3(C)C)[C@]1(OC(C)=O)CO[C@@H]1C[C@@H]2O [PTX, Paclitaxel]
- kinesin-1 run length on stabilized MTs ([2]; compared to native-like MTs): reduce run length

— publication PMC13492380, “Dissecting Structural and Functional Determinants of Microtubules Stabilization through Guided Chemical Modulation” (Journal of Medicinal Chemistry, 2026)
